The text below walks through data of ChEMBL document CHEMBL3612048, “Cytotoxic triterpenoid glycosides (saikosaponins) from the roots of Bupleurum chinense” (Bioorg Med Chem Lett, 2015).

pIC50: −log10 of the molar value. Bounds are passed on as bounds.

For experiment [1], the system named is A549. In words: Cytotoxicity against human A549 cells assessed as induction of cell death incubated for 2 days by MTT assay. Type of experiment: functional, cell-based. As to conditions: A549, 48 h. A general note: Tetrazolium dyes change colour on reduction, which living cells bring about.
Experiment [2] concerns HepG2. As to the kind of experiment: Cytotoxicity against human HepG2 cells assessed as induction of cell death incubated for 2 days by MTT assay. To be noted: HepG2, 48 h. Type of experiment: functional, cell-based.
The nature of experiment [3]: Cytotoxicity against human Hep3B cells assessed as induction of cell death incubated for 2 days by MTT assay. The format is functional, cell-based, Hep 3B2. To be noted: 48 h.
In experiment [4] the test system is Bcap37. In words: Cytotoxicity against human Bcap37 cells assessed as induction of cell death incubated for 2 days by MTT assay. As to conditions: Bcap37, 48 h. The format is functional, cell-based.
Experiment [5] deals with MCF7. In words: Cytotoxicity against human MCF7 cells assessed as induction of cell death incubated for 2 days by MTT assay. Type of experiment: functional, cell-based. To be noted: MCF7, 48 h.

As for `C[C@H]1O[C@@H](O[C@H]2CC[C@@]3(C)[C@@H](CC[C@]4(C)[C@@H]3C=CC3=C5CC(C)(C)CC[C@]5(CO)[C@H](O)C[C@]34C)[C@]2(C)CO)[C@H](O)[C@@H](O)[C@H]1O`, the pIC50 was under 4.30 in experiment [1]; 4.72 in experiment [2]; 4.78 in experiment [3]; 4.42 in experiment [4]; 4.53 in experiment [5].
Turning to `CC(=O)OC[C@@]1(C)[C@@H]2CC[C@]3(C)[C@H](C=C[C@]45OC[C@@]6(CCC(C)(C)C[C@H]64)[C@@H](O)C[C@]53C)[C@@]2(C)CC[C@@H]1O[C@@H]1O[C@H](C)[C@H](O)[C@H](O)[C@H]1O`, the pIC50 is 4.47 in experiment [1]; 5.01 in experiment [2]; 4.61 in experiment [3]; 4.59 in experiment [4]; 4.47 in experiment [5].
Take `C[C@H]1O[C@@H](O[C@H]2CC[C@]3(C)[C@H]4C=C[C@]56OC[C@@]7(CCC(C)(C)C[C@H]75)[C@@H](O)C[C@@]6(C)[C@]4(C)CC[C@H]3C2(C)C)[C@H](O)[C@@H](O[C@@H]2O[C@H](CO)[C@@H](O)[C@H](O)[C@H]2O)[C@H]1O`: the pIC50 in experiment [1] was under 4.30; in experiment [2], 4.69; in experiment [3], 4.78; in experiment [4] it was 4.81; in experiment [5], 4.67.
In the same order, the values of `CC(=O)OC[C@H]1O[C@@H](O[C@H]2[C@@H](O)[C@@H](C)O[C@@H](O[C@H]3CC[C@@]4(C)[C@@H](CC[C@]5(C)[C@@H]4C=C[C@]46OC[C@@]7(CCC(C)(C)C[C@H]74)[C@@H](O)C[C@]65C)[C@]3(C)CO)[C@@H]2O)[C@H](O)[C@@H](O)[C@@H]1O` are 4.45, 4.68, 4.77, 4.47 and 4.44.
As for `C[C@H]1O[C@@H](O[C@H]2CC[C@@]3(C)[C@@H](CC[C@]4(C)[C@@H]3C=C[C@]35OC[C@@]6(CCC(C)(C)C[C@H]63)[C@H](O)C[C@]54C)[C@]2(C)CO)[C@H](O)[C@@H](O[C@@H]2O[C@H](CO)[C@@H](O)[C@H](O)[C@H]2O)[C@H]1O`, the pIC50 in experiment [1] was 4.51; in experiment [2], 5.31; in experiment [3], 5.02; in experiment [4] it was 4.97; in experiment [5] it was 5.11.
Regarding `C[C@H]1O[C@@H](O[C@H]2CC[C@@]3(C)[C@@H](CC[C@]4(C)[C@@H]3C=C[C@]35OC[C@@]6(CCC(C)(C)C[C@H]63)[C@H](O)C[C@]54C)[C@]2(C)CO)[C@H](O)[C@@H](O)[C@H]1O`, the pIC50 in experiment [1] is under 4.30; in experiment [2] it was 5.03; in experiment [3], 4.69; in experiment [4], 4.49; in experiment [5], 4.31.
In the same order, the values of `C[C@@H]1O[C@@H](O[C@H]2[C@H](O)[C@@H](O)[C@H](O[C@H]3CC[C@]4(C)[C@H]5C=C[C@]67OC[C@@]8(CCC(C)(C)C[C@H]86)[C@@H](O)C[C@@]7(C)[C@]5(C)CC[C@H]4C3(C)C)O[C@@H]2CO[C@@H]2O[C@H](CO)[C@@H](O)[C@H](O)[C@H]2O)[C@H](O)[C@H](O)[C@H]1O` are under 4.30, under 4.30, under 4.30, under 4.30 and under 4.30.
The like results for `C[C@H]1O[C@@H](O[C@H]2CC[C@@]3(C)[C@@H](CC[C@]4(C)[C@@H]3C=C[C@]35OC[C@@]6(CCC(C)(C)C[C@H]63)[C@@H](O)C[C@]54C)[C@]2(C)CO)[C@H](O)[C@@H](O[C@@H]2O[C@H](CO)[C@@H](O)[C@H](O)[C@H]2O)[C@H]1O` [SAIKOSAPONIN A] were, in that order, 4.84, 5.08, 4.89, 4.86 and 4.72.
As for `C[C@H]1O[C@@H](O[C@H]2CC[C@@]3(C)[C@@H](CC[C@]4(C)[C@@H]3C=CC3=C5CC(C)(C)CC[C@]5(CO)[C@@H](O)C[C@]34C)[C@]2(C)CO)[C@H](O)[C@@H](O)[C@H]1O`, the pIC50 is under 4.30 in experiment [1]; 4.58 in experiment [2]; 4.70 in experiment [3]; 4.36 in experiment [4]; 4.38 in experiment [5].
As to `CC(=O)OC[C@@]1(C)[C@@H]2CC[C@]3(C)[C@H](C=C[C@]45OC[C@@]6(CCC(C)(C)C[C@H]64)[C@@H](O)C[C@]53C)[C@@]2(C)CC[C@@H]1O[C@@H]1O[C@H](C)[C@H](O)[C@H](O[C@@H]2O[C@H](CO)[C@@H](O)[C@H](O)[C@H]2O)[C@H]1O`, the pIC50 in experiment [1], in experiment [2], in experiment [3], in experiment [4] and in experiment [5] was under 4.30 throughout.
Regarding `C[C@H]1O[C@@H](O[C@H]2CC[C@@]3(C)[C@@H](CC[C@]4(C)[C@@H]3C=C[C@]35OC[C@@]6(CCC(C)(C)C[C@H]63)[C@@H](O)C[C@]54C)[C@]2(C)CO)[C@H](O)[C@@H](O)[C@H]1O`, the pIC50 in experiment [1] is under 4.30; in experiment [2], 4.88; in experiment [3], 4.70; in experiment [4] it was 4.76; in experiment [5], 4.36.
The like results for `CC(=O)OC[C@H]1O[C@@H](O[C@H]2[C@@H](O)[C@@H](C)O[C@@H](O[C@H]3CC[C@@]4(C)[C@@H](CC[C@]5(C)[C@@H]4C=C[C@]46OC[C@@]7(CCC(C)(C)C[C@H]74)[C@H](O)C[C@]65C)[C@]3(C)CO)[C@@H]2O)[C@H](O)[C@@H](O)[C@@H]1O` were, in that order, 4.82, 5.08, 5.12, 4.75 and 5.00.
In the same order, the values of `CC(=O)O[C@H]1[C@H](O[C@H]2[C@@H](O)[C@@H](C)O[C@@H](O[C@H]3CC[C@@]4(C)[C@@H](CC[C@]5(C)[C@@H]4C=C[C@]46OC[C@@]7(CCC(C)(C)C[C@H]74)[C@@H](O)C[C@]65C)[C@]3(C)CO)[C@@H]2O)O[C@H](CO)[C@@H](O)[C@@H]1O` are 4.41, 4.70, 5.24, 4.75 and 4.52.
In the same order, the values of `CC(=O)O[C@@H]1[C@@H](O)[C@H](O[C@H]2[C@@H](O)[C@@H](C)O[C@@H](O[C@H]3CC[C@@]4(C)[C@@H](CC[C@]5(C)[C@@H]4C=C[C@]46OC[C@@]7(CCC(C)(C)C[C@H]74)[C@@H](O)C[C@]65C)[C@]3(C)CO)[C@@H]2O)O[C@H](CO)[C@H]1O` are 4.42, 4.89, 4.86, 4.58 and 4.65.
As to `CO[C@@H]1C=C2[C@@H]3CC(C)(C)CC[C@]3(CO)[C@@H](O)C[C@@]2(C)[C@]2(C)CC[C@H]3C(C)(C)[C@@H](O[C@@H]4O[C@H](C)[C@H](O)[C@H](O)[C@H]4O)CC[C@]3(C)[C@@H]12`, the pIC50 in experiment [1], in experiment [2], in experiment [3], in experiment [4] and in experiment [5] was under 4.30 in each case.
As to `C[C@H]1O[C@@H](O[C@H]2CC[C@@]3(C)[C@@H](CC[C@]4(C)[C@@H]3C=CC3=C5CC(C)(C)CC[C@]5(CO)[C@@H](O)C[C@]34C)[C@]2(C)CO)[C@H](O)[C@@H](O[C@@H]2O[C@H](CO)[C@@H](O)[C@H](O)[C@H]2O)[C@H]1O`, the pIC50 in experiment [1], in experiment [2], in experiment [3], in experiment [4] and in experiment [5] was under 4.30 throughout.
As to `C[C@H]1O[C@@H](O[C@H]2CC[C@@]3(C)[C@@H](CC[C@]4(C)[C@@H]3C=CC3=C5CC(C)(C)CC[C@]5(CO)C(=O)C[C@]34C)[C@]2(C)CO)[C@H](O)[C@@H](O[C@@H]2O[C@H](CO)[C@@H](O)[C@H](O)[C@H]2O)[C@H]1O`, the pIC50 in experiment [1] is under 4.30; in experiment [2], 4.40; in experiment [3] it was under 4.30; in experiment [4] it was under 4.30; in experiment [5] it was under 4.30.
Regarding `CO[C@@H]1C=C2[C@@H]3CC(C)(C)CC[C@]3(CO)[C@@H](O)C[C@@]2(C)[C@]2(C)CC[C@H]3[C@](C)(CO)[C@@H](O[C@@H]4O[C@H](C)[C@H](O)[C@H](O)[C@H]4O)CC[C@]3(C)[C@@H]12`, the pIC50 in experiment [1] is under 4.30; in experiment [2], 4.52; in experiment [3], under 4.30; in experiment [4], under 4.30; in experiment [5], under 4.30.
`C[C@H]1O[C@@H](O[C@H]2CC[C@@]3(C)[C@@H](CC[C@]4(C)[C@@H]3C=C[C@]35OC[C@@]6(CCC(C)(C)C[C@H]63)C(=O)C[C@]54C)[C@]2(C)CO)[C@H](O)[C@@H](O[C@@H]2O[C@H](CO)[C@@H](O)[C@H](O)[C@H]2O)[C@H]1O`: the pIC50 was 4.47 in experiment [1]; 4.69 in experiment [2]; 5.11 in experiment [3]; 4.70 in experiment [4]; 4.62 in experiment [5].
In the case of `O=c1[nH]cc(F)c(=O)[nH]1` [FLUOROURACIL], the pIC50 in experiment [3] is 5.82.
For the compound `CO[C@@H]1C=C2C3CC(C)(C)CC[C@]3(CO)[C@H](O)C[C@@]2(C)[C@]2(C)CC[C@H]3[C@](C)(CO)[C@@H](O[C@@H]4O[C@H](C)[C@H](O)[C@H](O[C@@H]5O[C@H](CO)[C@@H](O)[C@H](O)[C@H]5O)[C@H]4O)CC[C@]3(C)[C@@H]12` (stereo partly specified), the pIC50 in experiment [1], in experiment [2], in experiment [3], in experiment [4] and in experiment [5] was under 4.30 in each case.

Usually pIC50 stands for the negative decadic logarithm of the IC50, by convention in mol/L.
